# Experimental data from PMC6450887, “Metabolic resistance of the D-peptide RD2 developed for direct elimination of amyloid-β oligomers” (Scientific Reports, 2019).
# Non-standard residues stand in square brackets, D forms with d. Residues, ends and D or L forms follow the SMILES beside them.
# Assays:
# [1] = Stability in human plasma, RP-HPLC; type: in vitro ADME; settings: female, 37 °C
# Method: The preparation of the media was performed as described before in Elfgen et al.[24]. Preparation of simulated gastric and intestinal fluid (SGF & SIF) was done according to the European Pharmacopoeia 7.0. Plasma samples were obtained from human blood of a volunteer donor. Pooled human liver microsomes were purchased from Sekisui XenoTech (Kansas City, USA; H1000, Lot: 0710494 and 1210270; H1500, Lot: 1210079), from Sigma-Aldrich (St. Louis, USA; M0692, Lot: SLBL1433V; M0567, Lot: SLBR2706V and SLBN7300V) and from Gibco, Thermo Fisher Scientific (Waltham, USA; HMMCPL, Lot: PL050; HMMCPM, Lot: PL039). Pooled Sprague Dawley rat liver microsomes were purchased from Sigma-Aldrich (St. Louis, USA; M9066, Lot: SLBN0707V) and from Gibco, Thermo Fisher Scientific (Waltham, USA; RTMCPL, Lot: RT053). Pooled cynomolgus monkey liver microsomes were purchased from Gibco, Thermo Fisher Scientific (Waltham, USA; MKMCPL, Lot: MK062) and from Sekisui XenoTech (Kansas City, USA; P2000, Lot: 1210334). The liver microsomes were diluted in an NADPH regenerating system (NRS).
# For the stability tests, 150 µM RD2 or L-RD2 was incubated in SGF, SIF, human plasma and human liver microsomes in triplicate at 37 °C with slight shaking for different time periods. To prevent microbial contaminations in long-term plasma incubations, 0.1% sodium azide was added to the solutions. Microsomal long-term activity was examined by incubating microsomes without peptide for up to 24 h and adding L-RD2 after 8 and 24 h. The ability to degrade L-RD2 served as indicator for their activity. For the comparison of RD2 metabolite profiles across species, 150 µM RD2 was incubated in human, rat and cynomolgus liver microsomes at 37 °C for 2 and 24 h. The peptides were extracted by precipitating the proteins with trichloroacetic acid (TCA) and subsequent centrifugation, as described previously in Elfgen et al.[24]. Peptides immediately extracted from the media and precipitated media without peptides served as controls.
# For sample analysis from stability tests (see 2.3), mobile phases were acetonitrile (A) and water (B) each supplemented with 0.15% trifluoroacetic acid (TFA) (v/v). The samples were measured isocratically at 10% solvent A for 30 min. This run conditions allowed us to detect smallest chemical changes including the differentiation between the original compound and a deamidated version (Fig. S1). RD2 and L-RD2 can potentially be deamidated at two sites, the C-terminus and the asparagine at position seven. Peak areas of the unmetabolized peptides after different incubation times were normalized to the peptides’ peak areas after direct extraction from the media. […] A chromatographic metabolite profile of L-RD2 in SIF was recorded with the same mobile phases but using a gradient from 0 to 30% solvent A in 30 min.
# [2] = tested on: rat; parameters: method as in complete study will be published elsewhere; settings: oral, up to high doses, ref complete study will be published elsewhere; cited from earlier work
# [3] = biological target: CYP2C19 (Homo sapiens, UniProt P33261); assay: CYP isoform inhibition in human liver microsomes (Cyprotex)
# Sequence of CYP2C19 (P33261 whole entry, canonical isoform): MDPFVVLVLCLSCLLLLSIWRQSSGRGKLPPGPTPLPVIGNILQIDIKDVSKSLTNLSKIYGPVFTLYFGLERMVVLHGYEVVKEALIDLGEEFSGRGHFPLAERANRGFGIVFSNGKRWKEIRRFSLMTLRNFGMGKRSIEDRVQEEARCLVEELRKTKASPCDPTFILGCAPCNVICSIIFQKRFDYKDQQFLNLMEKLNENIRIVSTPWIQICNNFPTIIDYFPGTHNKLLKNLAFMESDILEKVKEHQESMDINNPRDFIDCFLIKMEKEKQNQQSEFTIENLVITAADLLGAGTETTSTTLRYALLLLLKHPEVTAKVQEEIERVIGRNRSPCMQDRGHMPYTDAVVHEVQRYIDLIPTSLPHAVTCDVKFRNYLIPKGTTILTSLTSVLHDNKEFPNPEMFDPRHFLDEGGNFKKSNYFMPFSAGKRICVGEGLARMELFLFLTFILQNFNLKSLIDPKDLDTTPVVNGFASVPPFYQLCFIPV
# Method: The experiments were performed by Cyprotex. […] The reactions were terminated by methanol and the generated metabolites were monitored by LC-MS/MS or fluorescence. […] All assays were performed sevenfold. […] For all other substrates, the termination plates were centrifuged at 2,500 rpm and 4 °C for 30 min and aliquots of the supernatants were combined and transferred to fresh 96-well plates. Formic acid in deionized water (final concentration 0.1%) containing internal standard was added to the supernatants prior to cassette analysis by LC-MS/MS. A decrease in the formation of the metabolite compared to the vehicle control was used to calculate the IC50 values.
smiles,measurement,setting,value
"CC(C)C[C@@H](NC(=O)[C@H](NC(=O)[C@H]1CCCN1)[C@H](C)O)C(=O)N[C@H](Cc1c[nH]cn1)C(=O)N[C@@H](C(=O)N[C@H](Cc1c[nH]cn1)C(=O)N[C@H](CC(N)=O)C(=O)N[C@H](CCCNC(=N)N)C(=O)N[C@H](CCCNC(=N)N)C(=O)N[C@H](CCCNC(=N)N)C(=O)N[C@H](CCCNC(=N)N)C(=O)N[C@H](CCCNC(=N)N)C(N)=O)[C@H](C)O [RD2, ptlhthnrrrrr] (H-[dP][dT][dL][dH][dT][dH][dN][dR][dR][dR][dR][dR]-NH2)","metabolised at 480 h, 150 µM","[1]; 150 µM, within 20 days, read-out: peptide degraded",87 ± 3%
same,half-life at 150 µM,[1]; read-out: half-life (first order kinetics fit) (converted),216 h
same,toxic effects of orally administered RD2,[2],does not cause toxic effects up to high doses
same,inhibition of CYP2C19,[3]; concentration range 0 to 25 µM,did not inhibit
same,inhibition at 0.25 µM,"[3]; human, human liver microsomes",7.64%
same,inhibition at 1 µM,"[3]; human, human liver microsomes",2.47%
same,inhibition at 2.5 µM,"[3]; human, human liver microsomes",2.54%
same,inhibition at 10 µM,"[3]; human, human liver microsomes",-5.77%
same,inhibition at 25 µM,"[3]; human, human liver microsomes",-45.5%
